Reference: patent US6506755B2, “Thiazolidinecarboxyl acids” (Hoffmann-La Roche Inc., priority 2000, dated 2003)

Tested on: not given
Test: not given
Details: not given

SMILES | melting point [°C]
Cc1ccc(COc2ccc(C=C3SC(=S)N(CC(=O)O)C3=O)c(OCc3ccc(C)cc3)c2)cc1 [Compound 2, 5-[(2,4-Bis-(4-methylphenylmethoxy)phenyl)methylene]-4-oxo-2-thioxo-3-thiazolidineacetic acid] | 211

Target: human urokinase (uPA) binding to the specific receptor uPAR (Homo sapiens, UniProt Q03405)
Test: ELISA test of inhibition of uPA binding to the receptor uPAR
Details: compound concentration 1 μg/ml, 96-well microtitre plates
Description: The compound of the invention were tested (ELISA test) as human urokinase (uPA) inhibitors, which bind to the specific receptor uPAR mAk (BIO-R4), in accordance with the procedure described by Rettenberger et al. In Biol. Chem. Hoppe Seyler 376, 587-94 (1995). The assays are carried out in microtitre plates (96 wells).

human urokinase (uPA) binding to the specific receptor uPAR, sequence (Q03405 23-305 limits assumed): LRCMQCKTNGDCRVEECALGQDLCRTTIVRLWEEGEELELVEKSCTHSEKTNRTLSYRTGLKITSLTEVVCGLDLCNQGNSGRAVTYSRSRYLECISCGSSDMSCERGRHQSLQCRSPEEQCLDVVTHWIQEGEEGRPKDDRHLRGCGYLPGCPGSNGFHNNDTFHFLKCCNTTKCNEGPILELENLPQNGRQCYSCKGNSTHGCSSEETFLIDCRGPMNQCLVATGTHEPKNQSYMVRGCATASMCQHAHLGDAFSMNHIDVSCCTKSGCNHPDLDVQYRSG

SMILES | inhibition at 1 µg/mL [%] | % Inhibition at 1 μg/ml concentration [%]
O=C(O)CN1C(=O)C(=Cc2cc(OCCCc3ccc(Cl)cc3)ccc2OCCCc2ccc(Cl)cc2)SC1=S [Example 6, 5-[(2,5-Bis-(3-(4-chlorophenyl)propoxy)phenyl)methylene]-4-oxo-2-thioxo-3-thiazolidine-acetic Acid] | 57 | 
Cc1ccc(COc2ccc(OCc3ccc(C)cc3)c(C=C3SC(=S)N(CC(=O)O)C3=O)c2)cc1 [Example 2, 5-[(2,5-Bis-(4-methylphenylmethoxy)phenyl)methylene]-4-oxo-2-thioxo-3-thiazolidineacetic Acid] | 68 | 
Cc1ccc(COc2ccc(C=C3SC(=S)N(CC(=O)O)C3=O)c(OCc3ccc(C)cc3)c2)cc1 [Compound 2, 5-[(2,4-Bis-(4-methylphenylmethoxy)phenyl)methylene]-4-oxo-2-thioxo-3-thiazolidineacetic acid] | 48 | 
Cc1ccc(COc2ccc(C=C3SC(=S)N(C(Cc4ccccc4)C(=O)O)C3=O)c(OCc3ccc(C)cc3)c2)cc1 (stereo not drawn) [Example 23, 2-{5-[(2,4-Bis-(4-methylphenylmethoxy)phenyl)methylene]-4-oxo-2-thioxo-3-thiazolidine}-3-phenypropionic Acid] |  | 54
O=C(O)CN1C(=O)C(=Cc2cc(OCCCc3ccccc3)ccc2OCc2cccs2)SC1=S [Example 15, 5-[(2-(2-Thienylmethoxy)-5-(3-phenylpropoxy)phenyl)methylene]-4-oxo-2-thioxo-3-thiazolidineacetic Acid] | 63 | 
Cc1ccc(COc2ccc(C=C3SC(=S)N(C(C(=O)O)c4ccccc4)C3=O)c(OCc3ccc(C)cc3)c2)cc1 (stereo not drawn) [Example 22, 2-{5-[(2,4-Bis-(4-methylphenylmethoxy)phenyl)methylene]-4-oxo-2-thioxo-3-thiazolidine}-2-phenylacetic Acid] |  | 60
Cc1ccc(COc2ccc(C=C3SC(=S)N(C(C(=O)O)c4ccc(Cl)cc4)C3=O)c(OCc3ccc(C)cc3)c2)cc1 (stereo not drawn) [Example 24, 2-{5-[(2,4-Bis-(4-methylphenylmethoxy)phenyl)methylene]-4-oxo-2-thioxo-3-thiazolidine}-2-(4-chlorophenyl)acetic Acid] |  | 69
O=C(O)CN1C(=O)C(=Cc2cc(OCCCc3ccccc3)ccc2OCc2ccccc2)SC1=S [Example 13, 5-[(2-Phenylmethoxy-5-(3-phenylpropoxy)phenyl)methylene]-4-oxo-2-thioxo-3-thiazolidineacetic Acid] | 53 | 
